In patent publication US20070219275A1, “Use of Benzophenone Uv Filters for Preventing Tanning” (priority 2004, published 2007):

Test system: skin pigmentation on the back of Asian volunteers
Experiment: Tanning prevention: skin color (L*a*b*, Minolta chromameter) on the back of volunteers irradiated with simulated solar light
Type: in vivo, human
Conditions: day cream with 5% compound
Description: Skin color was measured in the L*a*b* colour by means of a Minolta CM-508i®) Chromameter).
10 Volunteers of originating from S-E-Asia and with a skinlightness L* between 65.4 and 40.8 were recruited following COLIPA-Guidelines.
The influence of extensive sun exposure on skin pigmentation and the protective effects of day care cosmetics were directly measured on the back of volunteers:
40 and 20 minutes prior to irradiation volunteers treated on the back with 2 mg/cm^2 of cream formulation.
Then tey were irradiated with simulated solar light for 12 weeks, 3-times a week with a dose≦1 MED (Minimal erythema dose; MED adjusted monthly).
The skin of the volunteers was assessed prior to the test and monthly prior to cream application and irradiation.
The influence of extensive sun exposure on skin pigmentation and the protective effects of a day cream containing
was directly measured on the back of Asian volunteers.
The skin of the volunteers was assessed prior to the test and monthly prior to cream application and irradiation for skin color by a Minolta Colorimeter 508i.

[1] = After 4 weeks, irradiation 3x/week <1 MED
[2] = After 8 weeks, irradiation 3x/week <1 MED
[3] = After 12 weeks, irradiation 3x/week <1 MED
[4] = Start, 2 mg/cm^2, 10 Asian volunteers

CCCCCCOC(=O)c1ccccc1C(=O)c1ccc(N(CC)CC)cc1O [compound of formula (3)]
L* (skin color) [1]: 50.5 | a* (skin color) [1]: 23.1 | b* (skin color) [1]: 22.6 | L* (skin color) [2]: 48.8 | a* (skin color) [2]: 22.6 | b* (skin color) [2]: 23.3 | L* (skin color) [3]: 47.7 | a* (skin color) [3]: 21.5 | b* (skin color) [3]: 24.6 | L* (skin color) [4]: 53.3 | a* (skin color) [4]: 22.5 | b* (skin color) [4]: 22.5
